The text below walks through data of patent publication US20140303163A1, “USE OF KINASE INHIBITORS IN PREVENTING AND TREATING INFLAMMATORY DISORDER” (priority 2011, published 2014).

The structures appear in SMILES notation. “Also recorded” adds a separate entry of the source. Bounds are passed on as bounds.

One data set has as its target T1, TSSK1 (Homo sapiens, UniProt Q9BXA7).
T1 sequence (Q9BXA7 1-367): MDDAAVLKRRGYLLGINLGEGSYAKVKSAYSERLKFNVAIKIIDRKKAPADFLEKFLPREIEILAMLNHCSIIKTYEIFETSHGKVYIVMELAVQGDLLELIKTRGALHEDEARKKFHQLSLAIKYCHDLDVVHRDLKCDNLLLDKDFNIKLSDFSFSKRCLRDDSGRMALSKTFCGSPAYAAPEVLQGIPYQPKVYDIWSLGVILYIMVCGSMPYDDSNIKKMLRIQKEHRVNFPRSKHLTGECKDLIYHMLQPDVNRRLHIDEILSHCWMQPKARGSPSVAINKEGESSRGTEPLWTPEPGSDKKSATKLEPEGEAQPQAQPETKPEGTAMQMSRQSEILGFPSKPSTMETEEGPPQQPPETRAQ
In words: Kinase assay TSSK1. The conditions noted are these: read-out: Target biochemical activity IC50, TSSK1.

Another data set relates to THP-1. In words: Cellular effect in mammalian cells, THP-1. The conditions noted are these: Homo sapiens. The class given is cell-based.
The subject of the next data set is HT29. Kind of data set: Cellular effect in mammalian cells, HT29. It is filed as cell-based. The following applies: Homo sapiens, HT-29.
The test system of a further data set is L02. In words: Cellular effect in mammalian cells, L02. The class given is cell-based. The conditions noted are these: Homo sapiens.
The test system of the next data set is MCF-7 cells. In words: Cell apoptosis assay (TUNEL, PARP Western blot). The class given is cell-based. The following applies: 48 hours, TUNEL and PARP Western blot. As to the method: (§1) MCF-7 cells were treated with compound 18 (F200) and Roscovitine for 48 hours. Then the cells were analyzed by TUNEL assay and Western blot to detect apoptosis.
For TUNEL assay, cells were fixed and blocking in 6-well plate. DNA strand breaks were labeled by terminal deoxynucleotidyl transferase (TdT), which catalyzed polymerization of labeled nucleotides to free 3′-OH DNA ends in template-independent manner Fluorescein could be detected by anti-fluorescein antibody, conjugated with horse-radish-peroxidase (POD). After DAB reaction, stained cells were analyzed and counted under light microscope.
(§2) For Western blot, cells were harvested and lysed by lysis buffer. Western blot were performed with anti-PARP or anti-Pol[…] II antibody. During apoptosis, PARP is cleaved from a 113KD intact form into smaller 89KD and 24KD fragments.

The test system of data set [1] is CDK9's activity on Pol II phosphorylation. Kind of data set: Western blot of Pol II phosphorylation. The class given is cell-based. The conditions noted are these: MCF-7 cells, 48 hours. The protocol: as §1, §2
Data set [2] is described as follows: Preliminary toxicology study in mice (acute toxicity). The class given is in vivo. The following applies: mouse, in vivo, po, p.o. (gavage), two weeks. The protocol: (§3) Preliminary toxicology study in mice: Mice were divided into four groups (n=10 in each), 500 mg/kg, 1,000 mg/kg or 2,000 mg/kg were administered respectively to three groups by gavage. Negative control is 0.5% CMC-Na. After two weeks, mice were sacrificed and tissue section of visceral organs were analyzed by Hematoxylin-Eosin staining

The next data set relates to mice. Described as above. It is filed as in vivo. The following applies: p.o. As to the method:
as §3

Data set [3] in a line: PK profile: rat IV/PO study. It is filed as in vivo. The following applies: oral administration.
For another data set, the system named is lung carcinoma (H460). Kind of data set: Tumor growth inhibition, H460 xenograft. The following applies: 150 mg/kg, oral administration. The class given is in vivo, SCID-bg mice. The protocol: Animal: SCID-bg mice Tumor type: lung carcinoma (H460) Treatment: Single PO dose for 21 days (starting at day 7 following tumor inoculation) Endpoint: tumor volume and mean luciferase activity by Xenogen (Caliper) machine: SCID-bg mice were implanted with NCI-H460 cells at 5×10^6 cells/mouse on Day 0. Compound 18 treatment began on Day 7. […] In model group, the vehicle was used instead of compound 18. Tumor volume and mean luciferase activity by Xenogen technology were measured once per there days.

The next data set concerns rabbit neutrophils. In words: Induction of neutrophil apoptosis (Annexin-V and PI staining). It is filed as cell-based. The protocol:
• 1. Acquire 5-10 ml blood from adult rabbit • 2. Isolate neutrophils using RED BLOOD CELL LYSING BUFFER (SIGMA Cat No. R7757) and rabbit isolation kit (TBDsciences, Cat No. LZS11133) • 3. Treat neutrophils with reference compounds or SG45 for 15 h • 4. Apoptosis assay (Annexin-V and PI staining)
Harvest neutrophils by centrifugation at 1,000 rpm, 4° C. for 7 min Remove culture medium after centrifugation. Wash the cell pellet with pre-cooled PBS 200 l once. The re-suspend the cells with pre-cooled PBS 100 l. Incubate the cells with 2 l dye PI (BD Biosciences. Cat. No. 556463) and 2 l anti-Annexin V-PE (BD Biosciences. Cat. No. 556421) at room temperature under the darkness for 30 minutes. Remove the antibodies by centrifugation at 1,000 rpm, 4° C. for 2 min Resuspend the cells in 200 l pre-cooled PBS Finally, load the cell suspension to the FACS machine to acquire the staining results: […]

In the next data set the target is CDK2 (Homo sapiens, UniProt P24941). Kind of data set: Kinase assay CDK2. The conditions noted are these: read-out: Target biochemical activity IC50, CDK2.
The next data set deals with CDK7 (Homo sapiens, UniProt P50613). Kind of data set: Kinase assay CDK7. The conditions noted are these: read-out: Target biochemical activity IC50, CDK7.
CDK7, sequence (P50613 whole entry, species assumed): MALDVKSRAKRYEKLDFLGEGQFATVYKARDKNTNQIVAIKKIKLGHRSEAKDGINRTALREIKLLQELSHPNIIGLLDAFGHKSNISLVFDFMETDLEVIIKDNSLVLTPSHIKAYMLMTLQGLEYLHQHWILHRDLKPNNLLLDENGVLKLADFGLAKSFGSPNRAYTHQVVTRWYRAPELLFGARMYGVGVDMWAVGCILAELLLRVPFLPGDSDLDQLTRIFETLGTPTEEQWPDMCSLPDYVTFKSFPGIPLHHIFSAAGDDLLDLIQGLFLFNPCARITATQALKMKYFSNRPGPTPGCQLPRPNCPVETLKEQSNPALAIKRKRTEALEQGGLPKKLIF
CDK7, sequence (P51946 whole entry partner, species assumed): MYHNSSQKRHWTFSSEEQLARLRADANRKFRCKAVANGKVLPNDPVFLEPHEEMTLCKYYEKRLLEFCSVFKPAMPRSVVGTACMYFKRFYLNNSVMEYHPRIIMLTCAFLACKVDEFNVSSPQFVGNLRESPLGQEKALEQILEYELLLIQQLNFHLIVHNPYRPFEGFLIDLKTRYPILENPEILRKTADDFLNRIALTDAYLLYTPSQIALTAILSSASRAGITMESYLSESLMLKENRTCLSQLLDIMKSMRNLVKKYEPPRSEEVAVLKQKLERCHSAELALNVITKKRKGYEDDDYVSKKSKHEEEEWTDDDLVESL
CDK7, sequence (P51948 whole entry partner, species assumed): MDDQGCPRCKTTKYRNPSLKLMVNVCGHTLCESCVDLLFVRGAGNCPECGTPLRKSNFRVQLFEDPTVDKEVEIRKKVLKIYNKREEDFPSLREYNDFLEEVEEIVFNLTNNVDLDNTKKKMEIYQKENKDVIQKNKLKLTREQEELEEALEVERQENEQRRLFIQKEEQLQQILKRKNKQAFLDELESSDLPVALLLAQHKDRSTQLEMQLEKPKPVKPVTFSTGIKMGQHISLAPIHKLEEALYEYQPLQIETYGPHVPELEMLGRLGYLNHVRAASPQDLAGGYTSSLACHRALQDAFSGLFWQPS
Another data set addresses SRC (Homo sapiens, UniProt P12931). In words: Kinase assay SRC. The conditions noted are these: read-out: Target biochemical activity IC50, SRC.
The test system of another data set is HeLa. In words: Cellular effect in mammalian cells, HeLa. The class given is cell-based. The following applies: Homo sapiens.
The test system of a further data set is MCF-7. Kind of data set: Cellular effect in mammalian cells, MCF-7. It is filed as cell-based. The conditions noted are these: Homo sapiens, MCF7.
In a further data set the test system is H460. In words: Cellular effect in mammalian cells, H460. The class given is cell-based. The following applies: Homo sapiens, NCI-H460.
For another data set, the system named is Jurkat. In words: Cellular effect in mammalian cells, Jurkat. It is filed as cell-based. The conditions noted are these: Homo sapiens.
The next data set has as its system K562. In words: Cellular effect in mammalian cells, K562. It is filed as cell-based. The conditions noted are these: Homo sapiens.
A further data set has as its system HCT116. In words: Cellular effect in mammalian cells, HCT116. The class given is cell-based. The conditions noted are these: Homo sapiens, HCT-116.
In another data set the test system is HepG2. Kind of data set: Cellular effect in mammalian cells, HepG2. It is filed as cell-based. The following applies: Homo sapiens.
For a further data set, the system named is MRC-5. In words: Cellular effect in mammalian cells, MRC-5. The conditions noted are these: Homo sapiens, MRC5. It is filed as cell-based.
The next data set addresses Aurora B (Homo sapiens, UniProt Q96GD4). In words: Kinase assay Aurora B. The conditions noted are these: read-out: Target biochemical activity IC50, Aurora B.

SRC, sequence (P12931 whole entry, species assumed): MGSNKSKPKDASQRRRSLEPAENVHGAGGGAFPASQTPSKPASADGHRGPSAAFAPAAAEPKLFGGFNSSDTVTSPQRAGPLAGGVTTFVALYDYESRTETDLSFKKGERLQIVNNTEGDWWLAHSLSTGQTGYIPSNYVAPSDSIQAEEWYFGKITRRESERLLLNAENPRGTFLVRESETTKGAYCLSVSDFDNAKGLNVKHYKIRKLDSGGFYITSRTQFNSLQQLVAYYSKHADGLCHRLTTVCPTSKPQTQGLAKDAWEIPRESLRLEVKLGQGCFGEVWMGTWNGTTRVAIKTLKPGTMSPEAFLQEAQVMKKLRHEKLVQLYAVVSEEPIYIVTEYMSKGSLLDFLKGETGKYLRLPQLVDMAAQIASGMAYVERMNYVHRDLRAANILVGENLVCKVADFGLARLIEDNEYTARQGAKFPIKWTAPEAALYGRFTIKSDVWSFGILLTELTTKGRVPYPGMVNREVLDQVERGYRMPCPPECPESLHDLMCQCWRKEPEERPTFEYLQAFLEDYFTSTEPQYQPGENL
Aurora B, sequence (Q96GD4 whole entry): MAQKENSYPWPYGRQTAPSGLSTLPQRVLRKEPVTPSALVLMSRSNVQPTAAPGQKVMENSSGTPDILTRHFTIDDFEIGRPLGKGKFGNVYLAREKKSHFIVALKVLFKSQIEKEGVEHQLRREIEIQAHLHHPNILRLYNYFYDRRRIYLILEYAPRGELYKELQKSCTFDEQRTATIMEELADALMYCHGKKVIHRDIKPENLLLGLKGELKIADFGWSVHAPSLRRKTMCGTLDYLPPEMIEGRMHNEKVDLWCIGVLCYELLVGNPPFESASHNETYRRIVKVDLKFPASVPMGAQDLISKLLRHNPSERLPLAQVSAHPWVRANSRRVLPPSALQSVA

For `CCn1cc(-c2ccnc(Nc3cccc(S(N)(=O)=O)c3)n2)c2cccnc21` [Compound 18, 3-(4-(1-Ethyl-1H-pyrrolo[2,3-b]pyridin-3-yl)pyrimidin-2-ylamino)benzenesulfonamide], the IC50 at TSSK1 was above 10 µM; in the data set on THP-1, 5.3 µM; with HT29 it was 0.59 µM; in the data set with L02, 4.3 µM. The “Induction of cell apoptosis” value with MCF-7 cells is listed as “induced apoptosis of cells; also recorded: induced cell apoptosis with dose-dependent manner”. For the same compound, the “Inhibition of CDK9's activity on Pol II phosphorylation” value in data set [1] was “inhibited CDK9's activity on Pol II phosphorylation”. The compound also yielded an LD50 at 2 weeks in [2] above 2000 mg/kg. In data set [2], the MTD at 2 weeks is above 500 mg/kg. For the same compound, the Tolerability in animals result with mice is on record as “excellent tolerability in animals”. Besides, in data set [3], the “Oral availability (in words)” value is “good oral availability”. In addition, the “Tumor growth inhibition (in words)” value in the data set with lung carcinoma (H460) is reported as “able to inhibit tumor growth”. Also, the “Induction of neutrophil apoptosis compared with Roscovitine” value in the data set with rabbit neutrophils (15 h, FIG. 5) is “stronger capability in inducing neutrophil apoptosis than Roscovitine”. The “Apoptotic morphological changes of neutrophils” value with rabbit neutrophils (increasing dose (0.5, 2, 10 μM), FIG. 4) is recorded as “typical apoptotic morphological changes”.
`CCn1cc(-c2ccnc(Nc3cccc(O)c3)n2)c2ccnc(Cl)c21` [SG48, 3-(4-(7-Chloro-1-ethyl-1H-pyrrolo[2,3-c]pyridin-3-yl)pyrimidin-2-ylamino)phenol]: the IC50 on CDK2 is 0.004 µM; on CDK7 it was 3.28 µM; at SRC, above 10 µM; on TSSK1, 0.14 µM; in the data set on HeLa, 3.31 µM; in the data set on MCF-7 it was 9.4 µM. Also, the 50% inhibitory concentration (IC50) in the data set with H460 was 4.66 µM; in the data set with Jurkat, 1.92 µM; in the data set with THP-1, above 10 µM; in the data set on K562 it was 4.75 µM; in the data set on HCT116, 4.67 µM; in the data set with HepG2, 6.1 µM. In addition, the figures for the IC50 in the data set with HT29, in the data set on MRC-5 and in the data set with L02 were 8.31 µM, above 10 µM and 8.1 µM, respectively.
For `CCn1cc(-c2ccnc(Nc3ccc(O)cc3)n2)c2ccnc(Cl)c21` [SG49, 4-(4-(7-Chloro-1-ethyl-1H-pyrrolo[2,3-c]pyridin-3-yl)pyrimidin-2-ylamino)phenol], the IC50 with HeLa is 2.69 µM; in the data set on MCF-7, above 10 µM; in the data set with H460, 2.95 µM; in the data set with Jurkat, 0.61 µM; in the data set with THP-1, 3.68 µM; with K562, 3.52 µM. In addition, the IC50 with HCT116 turned out to be 4.28 µM; in the data set with HepG2, 5.55 µM; in the data set with HT29 it was 8.59 µM; in the data set with MRC-5, 5.82 µM; with L02, 7.34 µM.
`CCn1cc(-c2ccnc(Nc3cccc(S(N)(=O)=O)c3)n2)c2ccnc(Cl)c21` [SG50, 3-(4-(7-Chloro-1-ethyl-1H-pyrrolo[2,3-c]pyridin-3-yl)pyrimidin-2-ylamino)benzenesulfonamide]: the IC50 on CDK2 was 0.004 µM; on CDK7, above 10 µM; on Aurora B, above 10 µM; on SRC, above 10 µM; at TSSK1 it was 0.52 µM; in the data set with HeLa, 0.23 µM. Further, the IC50 was determined as 0.45 µM with MCF-7; 0.4 µM in the data set on Jurkat; 0.61 µM in the data set with K562; 0.28 µM in the data set on HCT116; 1.16 µM with HT29; 3.36 µM with MRC-5.
As for `CCCn1cc(-c2ccnc(Nc3cccc(S(N)(=O)=O)c3)n2)c2ccncc21` [SG51, 3-(4-(1-Propyl-1H-pyrrolo[2,3-c]pyridin-3-yl)pyrimidin-2-ylamino)benzenesulfonamide], the midpoint of inhibition in the data set on Jurkat, the IC50, lay at 0.005 µM.
`CCCn1cc(-c2ccnc(Nc3ccc(C)c(S(=O)(=O)N4CCOCC4)c3)n2)c2ccncc21` [SG52, N-(4-Methyl-3-(morpholinosulfonyl)phenyl)-4-(1-propyl-1H-pyrrolo[2,3-c]pyridin-3-yl)pyrimidin-2-amine] registered an IC50 in the data set on L02 of 1.4 µM.
With `CCCn1cc(-c2ccnc(Nc3cccc(S(N)(=O)=O)c3)n2)c2nc(Cl)cc(C)c21` [SG53, 3-(4-(5-Chloro-7-methyl-1-propyl-1H-pyrrolo[3,2-b]pyridin-3-yl)pyrimidin-2-ylamino)benzenesulfonamide], the IC50 was 3.56 µM with HCT116 and 0.25 µM in the data set on HT29.
`CCCn1cc(-c2ccnc(Nc3ccc(S(N)(=O)=O)cc3)n2)c2nc(Cl)cc(C)c21` [SG54, 4-(4-(5-Chloro-7-methyl-1-propyl-1H-pyrrolo[3,2-b]pyridin-3-yl)pyrimidin-2-ylamino)benzenesulfonamide] gave an IC50 with L02 of 8.37 µM.
